Among the data in PubChem BioAssay AID742 (SRMLSC, 2007) are Her2 inhibition, EC50 and IC50 values, retold here.

A short description of assay [1]: Her2 expression suppression with viability readout – cell-based, AlphaScreen, CellTiter-Glo viability, dose response (AID 742). The settings on record: human cells, Her2 expression AlphaScreen; CTG viability; at 9.62 µM (top of the series).
The test system of assay [2] is human cells, Her2 expression AlphaScreen; CTG viability. The description is as above. As to conditions: for EC50: viability, CellTiter-Glo.

Molecules are shown by their SMILES. Active and inactive are the calls of the source. How the calls were made is not given here. A value given as a limit tells only on which side of the number the result lay.

For `CC12CCCCC1(O)[N+](=O)C1=C(CCCC1)N2[O-]` (stereo not drawn), the Her2 inhibition in assay [1] is -13.5% (inactive). The same compound gave an EC50 in assay [2] of more than 9.62 µM.
With `C=C(C)COc1ccc(-c2n[nH]c(C)c2-c2ccccc2OC)c(O)c1`, the Her2 inhibition in assay [1] is 4.56% (inactive). In assay [2], this compound showed an EC50 of more than 9.62 µM.
For the compound `Clc1ccc(COC(Cn2ccnc2)c2ccc(Cl)cc2Cl)c(Cl)c1` (stereo not drawn), in assay [1], the Her2 inhibition was -0.43% (inactive). The same compound returned an EC50 in assay [2] of more than 9.62 µM.
Turning to `COc1cccc(N2CCN(c3ncnc4c3[nH]c3ccc(F)cc34)CC2C)c1` (stereo not drawn), the Her2 inhibition in assay [1] was -42.1% (inactive). Moreover, the EC50 in assay [2] was less than 0.024 µM.
Taken in the same sequence, the figures for `C[C@@]1(CO)[C@H](O)CC[C@@]2(C)[C@H]1CC[C@H]1C[C@@H]3C[C@@]12CC[C@]3(O)CO` were 1.16% (inactive) and more than 9.62 µM.
The corresponding values for `CCN(CC(=O)NCc1cccs1)c1nnnn1-c1ccccc1` are -22.3% (inactive) and more than 9.62 µM.
The corresponding values for `CC(C)OCCCNC(=O)c1c(N)n(Cc2cccs2)c2nc3ccccc3nc12` are -14.5% (inactive) and more than 9.62 µM.
Take `CC1CN(c2oc(COc3ccc(Cl)cc3Cl)nc2C#N)CC(C)O1` (stereo not drawn): in assay [1], the Her2 inhibition is -17.3% (inactive). This compound displayed an EC50 in assay [2] of more than 9.62 µM.
Taken in the same sequence, the figures for `c1ccc2cc(OCCN3CCCC3)ccc2c1` were -36.3% (inactive) and more than 9.62 µM.
Taken in the same sequence, the figures for `CN1CCCN(C(c2ccccc2)c2ccc(Cl)cc2)CC1` (stereo not drawn) were -8.42% (inactive) and more than 9.62 µM.
Consider `CCC(C)NC(=O)c1cnn2c1NC(c1ccc3c(c1)OCO3)CC2C(F)(F)F` (stereo not drawn), for which, in assay [1], the Her2 inhibition is -0.33% (inactive). For the same compound, in assay [2], the EC50 was more than 9.62 µM.
The corresponding values for `Cc1ccc(C(c2sc3nc(C)nn3c2O)N2CCN(c3ccccc3F)CC2)cc1` (stereo not drawn) are -4.31% (inactive) and more than 9.62 µM.
Taken in the same sequence, the figures for `CC(C)NCC(O)Cn1c2c(c3ccccc31)CCc1c-2cnn1-c1ccccc1` (stereo not drawn) were 11.7% (inactive) and more than 9.62 µM.
Taken in the same sequence, the figures for `CCN(CC)c1ccc2c(Cl)c(Br)c(=O)oc2c1` were 3.42% (inactive) and more than 9.62 µM.
With `O=C1C2ON(c3ccccc3)C(c3cccnc3)C2C(=O)N1c1ccc(Cl)c(Cl)c1` (stereo not drawn), the Her2 inhibition in assay [1] was -16.1% (inactive). For the same compound, the EC50 in assay [2] is more than 9.62 µM.
For the compound `CCSC1(SCC)N=C(N)C2(C#N)C(c3ccc(OC)c(OC)c3OC)C12C#N` (stereo not drawn), the Her2 inhibition in assay [1] is 6.24% (inactive). The compound also had an EC50 in assay [2] of more than 9.62 µM.
The corresponding values for `Cc1ccc(-n2nc(C)c3c2OC(N)=C(C#N)C3c2ccc(F)cc2)cc1` (stereo not drawn) are -1.17% (inactive) and more than 9.62 µM.
Taken in the same sequence, the figures for `N#C/C(=C/c1ccc(N2CCCCCC2)o1)c1ccc(F)cc1` were 4.22% (inactive) and more than 9.62 µM.
Regarding `C=CCN=C(NC#N)SCc1ccccc1Cl`, the Her2 inhibition in assay [1] is 0.27% (inactive). Also, in assay [2], the EC50 is more than 9.62 µM.
Consider `O=C(CSc1nc2cc(Cl)ccc2s1)c1ccco1`, for which, in assay [2], the IC50 is 5.09 µM and the EC50 was more than 9.62 µM.
On to `CC(C)N(Cc1nc(-c2ccccc2)no1)C(=O)CN1C(=O)c2ccccc2C1=O`, for which, in assay [1], the Her2 inhibition is -1.52% (inactive). In assay [2], this compound registered an EC50 of more than 9.62 µM.
Taken in the same sequence, the figures for `Cc1cc(-c2ccccc2)nc(=O)[nH]1` were -18.4% (inactive) and more than 9.62 µM.
On to `CCn1c(=N)n(CC(=O)C23CC4CC(CC(C4)C2)C3)c2ccccc21`, for which the Her2 inhibition in assay [1] was -15.5% (inactive). In addition, the EC50 in assay [2] was more than 9.62 µM.
On to `CCCn1c(SCC(=O)Nc2cccc(C)n2)nnc1-c1ccco1`, for which the Her2 inhibition in assay [1] was -2.69% (inactive). Besides, the EC50 in assay [2] was more than 9.62 µM.
The corresponding values for `Cn1cnc2c1c(=O)[nH]c(=O)n2C` are -20.9% (inactive) and more than 9.62 µM.
Taken in the same sequence, the figures for `Cc1ccccc1OCCCC(=O)Nc1nccs1` were -6.38% (inactive) and more than 9.62 µM.
The corresponding values for `O=C(O)c1ccc2c3c(ncnc13)-c1ccccc1C2=O` are -3.54% (inactive) and more than 9.62 µM.
Regarding `COc1ccc(C(=O)c2no[n+]([O-])c2C(=O)c2ccc(OC)cc2)cc1`, the Her2 inhibition in assay [1] was -48.2% (inactive). The compound also returned an EC50 in assay [2] of more than 9.62 µM.
As for `CCN1/C(=C/C(=O)c2ccco2)Sc2ccccc21`, in assay [2], the IC50 is 3.63 µM and the EC50 was more than 9.62 µM.
Take `CCN(CC(=O)NC1CCCCCC1)S(=O)(=O)c1ccccc1`: the Her2 inhibition in assay [1] was -2.97% (inactive). For the same compound, the EC50 in assay [2] was more than 9.62 µM.
For the compound `O=c1[nH]c(Nc2nc3ccccc3o2)nc2c1CCCC2`, the Her2 inhibition in assay [1] was -16.5% (inactive). In addition, the EC50 in assay [2] is more than 9.62 µM.
In the case of `CCCCCn1c(CN2CCCCC2CC)nc2c1c(=O)n(C)c(=O)n2C` (stereo not drawn), the Her2 inhibition in assay [1] was -28.1% (inactive). In addition, in assay [2], the EC50 is more than 9.62 µM.
With `Nc1ccc2ncccc2c1N`, in assay [1], the Her2 inhibition was 1.77% (inactive). Moreover, in assay [2], the EC50 was more than 9.62 µM.
The corresponding values for `CCOC(=O)c1ccc(N=c2sc(C(=O)OC)cc(=O)n2Cc2ccco2)cc1` are -0.92% (inactive) and more than 9.62 µM.
On to `CCOC(=O)Cc1csc(NC(=O)COc2ccc(OC)cc2)n1`, for which, in assay [1], the Her2 inhibition is -22.7% (inactive). Besides, the EC50 in assay [2] was more than 9.62 µM.
The corresponding values for `N=c1c2c(-c3ccccc3)c(-c3ccccc3)n(Cc3ccco3)c2ncn1Cc1ccco1` are -27.8% (inactive) and more than 9.62 µM.
Taken in the same sequence, the figures for `Cc1cc(-n2c(C)cc(C(=O)CSc3nnnn3-c3ccc(Cl)cc3)c2C)no1` were -6.46% (inactive) and more than 9.62 µM.
The corresponding values for `CCOC(=O)C(NC(C)=O)(N1CCc2ccccc2C1)C(F)(F)F` (stereo not drawn) are -13.1% (inactive) and more than 9.62 µM.
Take `CS(=O)(=O)c1ncc(Cl)c(C(=O)Nc2ccc(N3CCOCC3)cc2)n1`: in assay [1], the Her2 inhibition is 19.8% (inactive). In assay [2], this compound showed an EC50 of more than 9.62 µM.
On to `COc1cc(NS(=O)(=O)c2ccc(C)cc2)c2ncccc2c1`, for which, in assay [1], the Her2 inhibition was 18.5% (inactive). Besides, the EC50 in assay [2] was more than 9.62 µM.
`Cc1ccc(CNC(=O)c2cc3c(-c4ccc(Cl)cc4)nn(C)c3s2)o1`: in assay [2], the IC50 was 6.48 µM and the EC50 is more than 9.62 µM.
`CCOc1ccccc1N(CC(=O)N1CCOCC1)S(=O)(=O)c1ccccc1`: in assay [1], the Her2 inhibition was 3.98% (inactive). Further, in assay [2], the EC50 is more than 9.62 µM.
Taken in the same sequence, the figures for `CCc1nc(N)c(C#N)c(-c2cccnc2)c1C` were 2.53% (inactive) and more than 9.62 µM.
The corresponding values for `COC(=O)CSc1cc(SCC(=O)OC)c(C#N)c(SCC(=O)OC)c1` are 6.74% (inactive) and more than 9.62 µM.
As for `Cc1ccc(-c2csc3ncnc(Sc4nnc(CN5CCCCCC5=O)o4)c23)cc1`, in assay [2], the IC50 is 4.53 µM and the EC50 was more than 9.62 µM.
The corresponding values for `COC(=O)c1sccc1NC(=O)c1ccc(Cl)s1` are 9 µM and more than 9.62 µM.
Taken in the same sequence, the figures for `CCCn1c(NC(=O)c2ccco2)nc2ccccc21` were 2.13 µM and more than 9.62 µM.
Take `O=S(=O)(CC(CN1CCCC1)N1CCCC1)c1ccc2ccccc2c1` (stereo not drawn): in assay [2], the IC50 is 7.29 µM and the EC50 is more than 9.62 µM.
As to `O=S1(=O)C=C(Sc2nc3ccccc3s2)c2ccccc21`, in assay [2], the IC50 was 5.63 µM and the EC50 is more than 9.62 µM.
Taken in the same sequence, the figures for `CCCCS(=O)(=O)/C=C\C=C/S(=O)(=O)CCCC` were 4.07 µM and more than 9.62 µM.
As for `COc1ccc(C(=O)C(CN2CCCC2)c2ccccc2)cc1` (stereo not drawn), in assay [2], the IC50 was 8.95 µM and the EC50 was more than 9.62 µM.
Taken in the same sequence, the figures for `CC(=O)c1sc2nc(-c3cccs3)cc(C(F)(F)F)c2c1N` were 9.32 µM and more than 9.62 µM.
The corresponding values for `CCn1nc(-c2cccs2)nc2c(=O)n(C)c(=O)nc1-2` are 2.55 µM (inactive) and less than 0.024 µM.
The corresponding values for `CS(=O)(=O)c1nc(-c2ccco2)cc(C(F)(F)F)n1` are 9.15 µM and more than 9.62 µM.
Consider `O=S1(=O)C=C(Sc2nnc(-c3ccccc3)o2)c2ccccc21`, for which, in assay [2], the IC50 is 7.54 µM and the EC50 was more than 9.62 µM.
The corresponding values for `Cn1c(C(C#N)C(=O)c2ccco2)nc2ccccc21` (stereo not drawn) are 2.25 µM and more than 9.62 µM.
Consider `Cc1nn2c(-c3ccco3)nnc2c2ccccc12`, for which, in assay [2], the IC50 is 2.38 µM and the EC50 is more than 9.62 µM.
In the case of `Cn1ncnc2c(=O)n(C)c(=O)nc1-2`, in assay [2], the IC50 was 2.24 µM (inactive) and the EC50 was less than 0.024 µM.
Taken in the same sequence, the figures for `COC(=O)/C(=C1/Oc2cc(C)oc(=O)c2S1)C(F)(F)F` were 3.78 µM (inactive) and less than 0.024 µM.
The corresponding values for `CCn1nc(-c2ccccc2)nc2c(=O)n(C)c(=O)nc1-2` are 4.48 µM (inactive) and less than 0.024 µM.
Consider `CS(=O)(=O)c1nc(-c2ccccc2)cc(C(F)(F)F)n1`, for which, in assay [2], the IC50 was 9.06 µM and the EC50 is more than 9.62 µM.
For the compound `Cc1nc(NC(=O)c2ccco2)sc1C(=O)Nc1ccc(Br)cc1`, in assay [2], the IC50 is 1.49 µM and the EC50 is more than 9.62 µM.
The corresponding values for `CN(C)CC(C(=O)c1ccccc1)c1ccccc1` (stereo not drawn) are 8.84 µM and more than 9.62 µM.
The corresponding values for `O=S1(=O)C=C(Sc2nc3cc(Cl)ccc3o2)c2ccccc21` are 9.25 µM and more than 9.62 µM.
The corresponding values for `O=S(=O)(C/C(=C/CO)S(=O)(=O)c1ccccc1)c1ccccc1` are 5.12 µM and more than 9.62 µM.
In the case of `Nc1nnnn1/N=C/C(Br)=C/c1ccccc1`, in assay [2], the IC50 is 3.58 µM and the EC50 is more than 9.62 µM.
`CS(=O)(=O)c1nc(-c2cccs2)cc(C(F)(F)F)n1`: in assay [2], the IC50 is 7.37 µM and the EC50 is more than 9.62 µM.
Regarding `CSC1=N/C(=C\C=C\c2cccs2)C(=O)S1`, in assay [2], the IC50 was 8.09 µM and the EC50 is more than 9.62 µM.
Take `Cc1nc2nc(-c3ccco3)nn2c(C)c1Cl`: in assay [2], the IC50 was 2.6 µM and the EC50 was more than 9.62 µM.
